From US20230058733A1, “OGA INHIBITOR COMPOUNDS” (JANSSEN PHARMACEUTICA NV, priority 2019, published 2023)

Assays:
[1] = target: T1, recombinant human Meningioma Expressed Antigen 5 (MGEA5), also referred to as O-GlcNAcase (OGA) (Homo sapiens, UniProt O60502); assay: OGA biochemical assay (inhibition of FM-GlcNAc hydrolysis, fluorescence); conditions: full length OGA 2 nM, FM-GlcNAc 100 uM; for IC50: pH 7.2, 6 h at room temperature, read-out: Enzymatic hOGA, pIC50 (converted); for Emax: relative to high and low controls, read-out: Enzymatic Emax (%)
T1 construct: Full length OGA enzyme was purchased at OriGene (cat #TP322411); purchased OriGene TP322411
T1 sequence (O60502 1-916): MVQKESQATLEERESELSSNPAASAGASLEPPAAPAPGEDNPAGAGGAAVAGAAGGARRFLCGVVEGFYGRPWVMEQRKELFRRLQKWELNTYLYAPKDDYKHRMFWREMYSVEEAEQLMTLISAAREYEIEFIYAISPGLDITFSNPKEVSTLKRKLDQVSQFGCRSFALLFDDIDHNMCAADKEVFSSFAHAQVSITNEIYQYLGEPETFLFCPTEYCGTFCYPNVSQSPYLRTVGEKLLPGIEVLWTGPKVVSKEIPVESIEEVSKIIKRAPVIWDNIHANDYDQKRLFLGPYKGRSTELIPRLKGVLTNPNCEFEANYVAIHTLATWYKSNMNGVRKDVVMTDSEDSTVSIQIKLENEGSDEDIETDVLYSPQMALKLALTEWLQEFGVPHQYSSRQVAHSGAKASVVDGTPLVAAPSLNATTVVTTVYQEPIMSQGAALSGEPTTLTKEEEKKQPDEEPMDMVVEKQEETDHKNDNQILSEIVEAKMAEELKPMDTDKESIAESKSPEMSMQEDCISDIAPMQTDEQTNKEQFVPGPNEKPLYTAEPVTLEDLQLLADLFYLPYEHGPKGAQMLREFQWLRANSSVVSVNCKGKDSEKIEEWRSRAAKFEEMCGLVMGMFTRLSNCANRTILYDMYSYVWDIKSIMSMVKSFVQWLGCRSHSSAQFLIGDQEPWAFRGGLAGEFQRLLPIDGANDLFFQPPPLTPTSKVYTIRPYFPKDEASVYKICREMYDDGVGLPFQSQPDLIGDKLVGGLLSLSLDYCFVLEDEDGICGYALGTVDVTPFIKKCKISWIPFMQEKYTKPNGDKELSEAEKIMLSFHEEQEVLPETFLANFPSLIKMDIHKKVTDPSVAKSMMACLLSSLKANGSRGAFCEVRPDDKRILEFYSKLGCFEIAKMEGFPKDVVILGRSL
Source text: The assay is based on the inhibition of the hydrolysis of fluorescein mono-β-D-N-Acetyl-Glucosamine (FM-GlcNAc) (Mariappa et al. 2015, Biochem J 470:255) by the recombinant human Meningioma Expressed Antigen 5 (MGEA5), also referred to as O-GlcNAcase (OGA). The hydrolysis FM-GlcNAc (Marker Gene technologies, cat #M1485) results in the formation of […] and fluorescein. The fluorescence of the latter can be measured at excitation wavelength 485 nm and emission wavelength 538 nm. An increase in enzyme activity results in an increase in fluorescence signal. Full length OGA enzyme was purchased at OriGene (cat #TP322411). The enzyme was stored in 25 mM Tris.HCl, pH 7.3, 100 mM glycine, 10% glycerol at −20° C. Thiamet G and GlcNAcStatin were tested as reference compounds (Yuzwa et al. 2008 Nature Chemical Biology 4:483; Yuzwa et al. 2012 Nature Chemical Biology 8:393). The assay was performed in 200 mM Citrate/phosphate buffer supplemented with 0.005% Tween-20. 35.6 g Na2HPO4 2 H2O (Sigma, #C0759) were dissolved in 1 L water to obtain a 200 mM solution. 19.2 g citric acid (Merck, #1.06580) was dissolved in 1 L water to obtain a 100 mM solution. pH of the sodiumphosphate solution was adjusted with the citric acid solution to 7.2. The buffer to stop the reaction consists of a 500 mM Carbonate buffer, pH 11.0. 734 mg FM-GlcNAc were dissolved in 5.48 mL DMSO to obtain a 250 mM solution and was stored at −20° C. OGA was used at a 2 nM concentration and FM-GlcNAc at a 100 uM final concentration. Dilutions were prepared in assay buffer.
50 nl of a compound dissolved in DMSO was dispensed on Black Proxiplate TM 384 Plus Assay plates (Perkin Elmer, #6008269) and 3 μl fl-OGA enzyme mix added subsequently. Plates were pre-incubated for 60 min at room temperature and then 2 μl FM-GlcNAc substrate mix added. […] Plates were briefly centrifuged for 1 min at 1000 rpm and incubate at room temperature for 6 h. To stop the reaction 5 μl STOP buffer were added and plates centrifuge again 1 min at 1000 rpm. Fluorescence was quantified in the Thermo Scientific Fluoroskan Ascent or the PerkinElmer EnVision with excitation wavelength 485 nm and emission wavelength 538 nm.
For analysis a best-fit curve is fitted by a minimum sum of squares method. From this an IC50 value and Hill coefficient was obtained. High control (no inhibitor) and low control (saturating concentrations of standard inhibitor) were used to define the minimum and maximum values.

[2] = target: T2, hOGA (Homo sapiens, UniProt O60502); assay: OGA cellular assay (ICC detection of O-GlcNAcylated proteins in HEK293 cells inducible for P301L mutant human Tau); format: cell-based; conditions: for EC50: HEK293 cells inducible for P301L mutant human Tau (2N4R), 6 hours incubation, O-GlcNAcylation readout at 488 nm, read-out: Cellular hOGA, pEC50 (converted); for Emax: HEK293 cells inducible for P301L mutant human Tau, maximum defined by Thiamet G at 200 uM
T2 construct: HEK293 cells inducible for P301L mutant human Tau (isoform 2N4R) were established at Janssen; endogenous in cells; host or cells: HEK293 cells inducible for P301L mutant human Tau (2N4R)
T2 sequence (O60502 1-916): T1 sequence (O60502 1-916)
Procedure: HEK293 cells inducible for P301L mutant human Tau (isoform 2N4R) were established at Janssen. Thiamet-G was used for both plate validation (high control) and as reference compound (reference EC50 assay validation). OGA inhibition is evaluated through the immunocytochemical (ICC) detection of O-GlcNAcylated proteins by the use of a monoclonal antibody (CTD110.6; Cell Signaling, #9875) detecting 0-GlcNAcylated residues as previously described (Dorfmueller et al. 2010 Chemistry & biology, 17:1250). Inhibition of OGA will result in an increase of O-GlcNAcylated protein levels resulting in an increased signal in the experiment. Cell nuclei are stained with Hoechst to give a cell culture quality control and a rough estimate of immediate compounds toxicity, if any. ICC pictures are imaged with a Perkin Elmer Opera Phenix plate microscope and quantified with the provided software Perkin Elmer Harmony 4.1.
Cells were propagated in DMEM high Glucose (Sigma, #D5796) following standard procedures. 2 days before the cell assay cells are split, counted and seeded in Poly-D-Lysine (PDL) coated 96-wells (Greiner, #655946) plate at a cell density of 12,000 cells per cm^2 (4,000 cells per well) in 100 μl of Assay Medium (Low Glucose medium is used to reduce basal levels of GlcNAcylation) (Park et al. 2014 The Journal of biological chemistry 289:13519). At the day of compound test medium from assay plates was removed and replenished with 90[d of fresh Assay Medium. 10 μl of compounds at a 10 fold final concentration were added to the wells. Plates were centrifuged shortly before incubation in the cell incubator for 6 hours. DMSO concentration was set to 0.2%. Medium is discarded by applying vacuum. For staining of cells medium was removed and cells washed once with 100 μl D-PBS (Sigma, #D8537). From next step onwards unless other stated assay volume was always 50 μl and incubation was performed without agitation and at room temperature. Cells were fixed in 50 μl of a 4% paraformaldehyde (PFA, Alpha aesar, #043368) PBS solution for 15 minutes at room temperature. […] Before analysis samples were washed 2 times manually for 5 minutes in ICC base buffer.
Imaging is performed using Perkin Elmer Phenix Opera using a water 20× objective and recording 9 fields per well. Intensity readout at 488 nm is used as a measure of O-GlcNAcylation level of total proteins in wells. To assess potential toxicity of compounds nuclei were counted using the Hoechst staining. IC50-values are calculated using parametric non-linear regression model fitting. As a maximum inhibition Thiamet G at a 200 uM concentration is present on each plate. In addition, a concentration response of Thiamet G is calculated on each plate.

| Compound | IC50 [1] [nM] | Emax [1] [%] | EC50 [2] [nM] | Emax [2] [%] |
| --- | --- | --- | --- | --- |
| Cc1cc(C(F)(F)F)cc(C)c1Nc1nncc2c1ccn2CC(=O)N(C)C [Co. No. 1] | 15.1 | 101 | 24 | 68 |
| Cc1ccnc(C(C)C)c1Nc1nncc2c1ccn2CC(=O)N(C)C [Co. No. 2] | 21.4 | 98 | 138 | 138 |
| Cc1cc(OC(F)(F)F)cc(Cl)c1Nc1nncc2c1ccn2CC(=O)N(C)C [Co. No. 3] | 6.31 | 101 | 15.8 | 108 |
| Cc1cc(Cl)cc(C(F)(F)F)c1Nc1nncc2c1ccn2CC(=O)N(C)C [Co. No. 4] | 19.1 | 100 | 74.1 | 63 |
| Cc1cc(C)c(Nc2nncc3c2ccn3CC(=O)N(C)C)c(C)c1 [Co. No. 5] | 4.27 | 99 | 21.4 | 92 |
